pEC50: −log10 of the molar value. Where two headings read alike, the source gives them in different places.
Key:
Assay type in all cases: cell-based
[1] = tested on: eIF2B mutant B5 R195H; test: ATF4-Luc assay, VWMD eIF2B mutant HEK293T ATF4-Fluc cells, B5 R195H; conditions: Homo sapiens, HEK-293T
Method: (§1) In order to test exemplary compounds of the invention in a cellular context, a stable VWMD cell line was first constructed. The ATF4 reporter was prepared by fusing the human full-length ATF4 5′-UTR (NCBI Accession No. BC022088.2) in front of the firefly luciferase (FLuc) coding sequence lacking the initiator methionine as described in Sidrauski et al (eLife 2013). The construct was used to produce recombinant retroviruses using standard methods and the resulting viral supernatant was used to transduce HEK293T cells, which were then subsequently selected with puromycin to generate a stable cell line.
(§2) HEK293T cells carrying the ATF4 luciferase reporter were plated on polylysine coated 384-well plates (Greiner Bio-one) at 30,000 cells per well. Cells were treated the next day with 1 μg/mL tunicamycin and 200 nM of a compound of Formula (I) for 7 hours. Luminescence was measured using One Glo (Promega) as specified by the manufacturer. Cells were maintained in DMEM with L-glutamine supplemented with 10% heat-inactivated FBS (Gibco) and Antibiotic-Antimycotic solution (Gibco).
(§3) VWMD mutations were introduced into the genome of the HEK293T ATF4-Fluc stable cell lines by using Gene Art CRISPR nuclease vector with OFP Reporter kit (ThermoFisher; see Table 3 below). Guide RNAs were designed using the CRISPR Design Tool (http://crispr.mit.edu) and ligated into the CRISPR OFP Nuclease Vector. To obtain homology directed repair (HDR) incorporating VWMD point mutations in the genome, 150 bp ssDNA ultramer oligos were synthesized by Integrated DNA Technologies containing specific mutations of interest. In addition to the VWMD mutations, the ssDNA HDR templates contained a silent mutation to the PAM site of the CRISPR gRNA sequence (to avoid further Cas9 cutting) and 75 bp of homology on each side of the mutation.
(§4) HEK293T ATF4-Fluc cells were transfected with 500 ng of the CRISPR OFP Nuclease Vector and 1 μL of 10 μM ssDNA HDR template using lipofectamine 3000 (ThermoFisher) or SF Cell Line 4D-nucleofector X Kit (Lonza) according to the manufacturer's instructions. After 2-3 days of recovery, single cells were sorted for positive OFP expression on a FACS Aria II (BD Biosciences) into wells of a 96 well plate and allowed to recover for 1-2 weeks.
(§5) The resulting clones were surveyed for CRISPR editing and HDR by harvesting the genomic DNA with the PureLink Genomic DNA kit (ThermoFisher), amplifying a […] locus near the editing site, and sequencing the amplicon. […] Typical clones obtained were hemizygous for the VWMD point mutation, with one or two alleles harboring the desired mutation, and the remaining alleles knocked out (edited to produce a premature stop codon).

[2] = tested on: eIF2B mutant B3 I346T; test: ATF4-Luc assay, VWMD eIF2B mutant HEK293T ATF4-Fluc cells, B3 I346T; conditions: Homo sapiens, HEK-293T
Method: as §1, §2, §3, §4, §5

[3] = tested on: eIF2B mutant B1 V184; test: ATF4-Luc assay, VWMD eIF2B mutant HEK293T ATF4-Fluc cells, B1 V184; conditions: Homo sapiens, HEK-293T
Method: as §1, §2, §3, §4, §5

[4] = tested on: eIF2B mutant B3 H341Q; test: ATF4-Luc assay, VWMD eIF2B mutant HEK293T ATF4-Fluc cells, B3 H341Q; conditions: Homo sapiens, HEK-293T
Method: as §1, §2, §3, §4, §5

[5] = tested on: eIF2B mutant B4 R483W; test: ATF4-Luc assay, VWMD eIF2B mutant HEK293T ATF4-Fluc cells, B4 R483W; conditions: Homo sapiens, HEK-293T
Method: as §1, §2, §3, §4, §5

[6] = tested on: eIF2B mutant B5 R113H; test: ATF4-Luc assay, VWMD eIF2B mutant HEK293T ATF4-Fluc cells, B5 R113H; conditions: Homo sapiens, HEK-293T
Method: as §1, §2, §3, §4, §5

[7] = tested on: eIF2B mutant B4 R357W; test: ATF4-Luc assay, VWMD eIF2B mutant HEK293T ATF4-Fluc cells, B4 R357W; conditions: Homo sapiens, HEK-293T
Method: as §1, §2, §3, §4, §5

[8] = tested on: ATF4 luciferase reporter in HEK293T cells; test: ATF4-Luc assay, HEK293T cells carrying the ATF4 luciferase reporter (in vitro model of VWMD); conditions: Homo sapiens, HEK-293T, read-out: ATF4-Luc EC50
Method: as §1, §2

[9] = HEK293T ATF4 luciferase reporter cells, 1 μg/mL tunicamycin, 7 hours

Cc1noc(COCC(=O)NC23CC(NC(=O)COc4ccc(Cl)c(F)c4)(C2)C3)n1 [Compound 217, 2-(4-chloro-3-fluorophenoxy)-N-(3-{2-[(3-methyl-1,2,4-oxadiazol-5-yl)methoxy]acetamido}bicyclo[1.1.1]pentan-1-yl)acetamide]
pEC50 [1]: < 5.70
pEC50 [2]: < 5.70
pEC50 [3]: < 5.70
pEC50 [4]: < 5.70
pEC50 [5]: < 5.70
pEC50 [6]: < 5.70
pEC50 [7]: < 5.70

O=C(COc1ccc(Cl)c(F)c1)NC12CCC(NC(=O)COc3ccc(Cl)c(F)c3)(CC1)[C@H](O)C2 [Compound 298, N,N′-[(2R)-2-hydroxybicyclo[2.2.2]octane-1,4-diyl]bis[2-(4-chloro-3-fluorophenoxy)acetamide]]
pEC50 [1]: > 8.00
pEC50 [2]: > 8.00
pEC50 [3]: > 8.00
pEC50 [4]: > 8.00
pEC50 [5]: > 8.00
pEC50 [6]: > 8.00
pEC50 [8, 9]: > 8.00
pEC50 [7]: > 8.00

O=C(COc1ccc(Cl)cc1)NC12CC(NC(=O)COc3ccc(Cl)cc3)(C1)C2 [Compound 112, N,N′-(bicyclo[1.1.1]pentane-1,3-diyl)bis[2-(4-chlorophenoxy)acetamide]]
pEC50 [1]: > 8.00
pEC50 [2]: > 8.00
pEC50 [3]: > 8.00
pEC50 [4]: > 8.00
pEC50 [5]: > 8.00
pEC50 [6]: > 8.00
pEC50 [7]: > 8.00

O=C(COc1ccc(C(F)(F)F)nc1)NC12CC(NC(=O)COc3ccc(Cl)c(F)c3)(C1)C2 [Compound 175, 2-(4-chloro-3-fluorophenoxy)-N-[3-(2-{[6-(trifluoromethyl)pyridin-3-yl]oxy}acetamido)bicyclo[1.1.1]pentan-1-yl]acetamide]
pEC50 [1]: 7.30 to 8.00
pEC50 [2]: > 8.00
pEC50 [3]: 6.60 to 7.30
pEC50 [4]: 7.30 to 8.00
pEC50 [5]: > 8.00
pEC50 [6]: 7.30 to 8.00
pEC50 [7]: 7.30 to 8.00

O=C(COc1ccc(Cl)c(F)c1)NC12CCC(NC(=O)COc3ncccn3)(CC1)[C@@H](O)C2 [Compound 500, 2-(4-chloro-3-fluorophenoxy)-N-[(3S)-3-hydroxy-4-{2-[(pyrimidin-2-yl)oxy]acetamido}bicyclo[2.2.2]octan-1-yl]acetamide]
pEC50 [8, 9]: < 5.70

O=C(COc1ccc(Cl)c(F)c1)NC12CC(NC(=O)OCCCc3cccc(Cl)c3)(C1)C2 [Compound 166, 3-(3-chlorophenyl)propyl {3-[2-(4-chloro-3-fluorophenoxy)acetamido]-bicyclo[1.1.1]pentan-1-yl}carbamate]
pEC50 [8, 9]: 3.30 to 6.60

Cc1ccc(OC(=O)NC23CC(NC(=O)COc4ccc(Cl)c(F)c4)(C2)C3)cc1 [Compound 435, 4-methylphenyl {3-[2-(4-chloro-3-fluorophenoxy)acetamido]bicyclo[1.1.1]pentan-1-yl}carbamate]
pEC50 ([8]; 7 h): 3.30 to 6.60

CC(C)(O)c1ccc(OCC(=O)NC23CC(NC(=O)COc4ccc(Cl)c(Cl)c4)(C2)C3)cc1 [Compound 422, 2-(3,4-dichlorophenoxy)-N-(3-{2-[4-(2-hydroxypropan-2-yl)phenoxy]acetamido}bicyclo[1.1.1]pentan-1-yl)acetamide]
pEC50 [8, 9]: 3.30 to 6.60

O=C(COc1ccc(Cl)c(F)c1)NC12CCC(NC(=O)COc3ccc(C(F)(F)F)nc3)(CC1)[C@@H](F)C2 [Compound 373, 2-(4-chloro-3-fluorophenoxy)-N-[(3S)-3-fluoro-4-(2-{[6-(trifluoromethyl)pyridin-3-yl]oxy}acetamido)bicyclo[2.2.2]octan-1-yl]acetamide]
pEC50 [8, 9]: 6.60 to 7.30

O=C(COc1ccc(Cl)c(Cl)c1)NC12CC(NC(=O)OCCCc3cccc(Cl)c3)(C1)C2 [Compound 174, 3-(3-chlorophenyl)propyl {3-[2-(3,4-dichlorophenoxy)acetamido]-bicyclo[1.1.1]pentan-1-yl}carbamate]
pEC50 [8, 9]: 3.30 to 6.60

Cc1ccc(COCC(=O)NC23CC(NC(=O)COc4ccc(Cl)c(F)c4)(C2)C3)cc1 [Compound 144, 2-(4-chloro-3-fluorophenoxy)-N-(3-{2-[(4-methylphenyl)methoxy]acetamido}-bicyclo[1.1.1]pentan-1-yl)acetamide]
pEC50 [8, 9]: 3.30 to 6.60

O=C(CCn1ncc(Cl)cc1=O)NC12CC(NC(=O)COc3ccc(Cl)c(F)c3)(C1)C2 [Compound 104, N-{3-[2-(4-chloro-3-fluorophenoxy)acetamido]bicyclo[1.1.1]pentan-1-yl}-3-(4-chloro-6-oxopyridazin-1(6H)-yl)propanamide]
pEC50 [8, 9]: 3.30 to 6.60

CC(O)(c1ccc(OCC(=O)NC23CC(NC(=O)COc4ccc(Cl)c(F)c4)(C2)C3)cc1)C(F)(F)F (centres unmarked) [Compound 413, 2-(4-chloro-3-fluorophenoxy)-N-(3-{2-[4-(1,1,1-trifluoro-2-hydroxypropan-2-yl)phenoxy]acetamido}bicyclo[1.1.1]pentan-1-yl)acetamide]
pEC50 [8, 9]: 3.30 to 6.60

CC(C)(C)c1ccc(OCC(=O)NC23CCC(NC(=O)COc4ccc(Cl)c(F)c4)(CC2)C[C@@H]3O)cc1 [Compound 506, 2-(4-tert-butylphenoxy)-N-{(2S)-4-[2-(4-chloro-3-fluorophenoxy)acetamido]-2-hydroxybicyclo[2.2.2]octan-1-yl}acetamide]
pEC50 [8, 9]: 3.30 to 6.60

O=C(COc1ccc(Cl)c(F)c1)NC12CC(NC(=O)COc3cnc4cc[nH]c4c3)(C1)C2 [Compound 254, 2-(4-chloro-3-fluorophenoxy)-N-(3-{2-[(1H-pyrrolo[3,2-b]pyridin-6-yl)oxy]acetamido}bicyclo[1.1.1]pentan-1-yl)acetamide]
pEC50 [8, 9]: 3.30 to 6.60

O=C(COc1ccc(Cl)c(F)c1)NC12CCC(NC(=O)COc3ccc(C(F)(F)F)nc3)(CC1)[C@@H](F)C2 (single isomer, unassigned) [Compound 372]
pEC50 [8, 9]: 6.60 to 7.30

N#Cc1cc(OCC(=O)NC23CC(NC(=O)COc4ccc5c(c4)OC(F)(F)O5)(C2)C3)ccn1 [Compound 270, 2-[(2-cyanopyridin-4-yl)oxy]-N-(3-{2-[(2,2-difluoro-2H-1,3-benzodioxol-5-yl)oxy]acetamido}bicyclo[1.1.1]pentan-1-yl)acetamide]
pEC50 [8, 9]: 3.30 to 6.60

CCc1cc(C)cc(OCC(=O)NC23CCC(NC(=O)COc4ccc(Cl)c(F)c4)(CC2)C[C@@H]3O)c1 [Compound 494, 2-(4-chloro-3-fluorophenoxy)-N-{(3S)-4-[2-(3-ethyl-5-methylphenoxy)acetamido]-3-hydroxybicyclo[2.2.2]octan-1-yl}acetamide]
pEC50 [8, 9]: 3.30 to 6.60

NCc1ccc(OCC(=O)NC23CC(NC(=O)COc4ccc(Cl)c(F)c4)(C2)C3)cn1 [Compound 259, 2-{[6-(aminomethyl)pyridin-3-yl]oxy}-N-{3-[2-(4-chloro-3-fluorophenoxy)acetamido]bicyclo[1.1.1]pentan-1-yl}acetamide]
pEC50 [8, 9]: 3.30 to 6.60

O=C(COc1ccc(Cl)c(F)c1)NC12CC(NC(=O)Oc3ccc(Cl)cc3)(C1)C2 [Compound 434, 4-chlorophenyl {3-[2-(4-chloro-3-fluorophenoxy)acetamido]bicyclo[1.1.1]pentan-1-yl}carbamate]
pEC50 ([8]; 7 h): 3.30 to 6.60

COc1ccc(/C=C/C(=O)NC23CC(NC(=O)COc4ccc(Cl)c(F)c4)(C2)C3)cc1 [Compound 347, (2E)-N-{3-[2-(4-chloro-3-fluorophenoxy)acetamido]bicyclo[1.1.1]pentan-1-yl}-3-(4-methoxyphenyl)prop-2-enamide]
pEC50 [8, 9]: 3.30 to 6.60

O=C(COc1ccc(Cl)c(F)c1)NC12CCC(NC(=O)COc3ccnn(CC(F)(F)F)c3=O)(CC1)C(O)C2 (centres unmarked) [Compound 333, 2-(4-chloro-3-fluorophenoxy)-N-[3-hydroxy-4-(2-{[3-oxo-2-(2,2,2-trifluoroethyl)-2,3-dihydropyridazin-4-yl]oxy}acetamido)bicyclo[2.2.2]octan-1-yl]acetamide]
pEC50 [8, 9]: 3.30 to 6.60
